Results taken from patent publication US20200000756A1, “NEOSTIGMINE COMBINATION AND COMPOSITIONS” (priority 2017, published 2020).
“Also recorded” adds a separate entry of the source.

Test: Phase I single-blind study: single oral doses of neostigmine bromide with or without a single oral dose of ondansetron hydrochloride dihydrate
Type: in vivo
Conditions: six human subjects
Procedure: The ability of the 5HT3-antagonists for preventing the gastro-intestinal adverse effects of orally administered neostigmine bromide in humans was tested.
A Phase I study was conducted in six human subjects receiving a single oral dose of neostigmine bromide with or without a single oral dose of ondansetron hydrochloride dihydrate, as a representative 5HT3-antagonist. The study was a single center, single-blind.
To be enrolled in the study, participants (aged 18 to 60 years of age) were required, to refrain from consuming xanthine, quinine and caffeine containing beverages, and to refrain from prolonged intensive physical exercise during the study conduct. […] The key criteria for exclusion of a subject from enrollment in the study were as follows:
any clinically relevant acute or chronic disease which could interfere with the subjects' safety during the trial, expose them to undue risk, or interfere with the study objectives; history or presence of gastrointestinal, hepatic, or renal disease or other condition known to interfere with the absorption, distribution, metabolism or excretion of drugs; history of substance abuse, known drug addiction, or positive test for drugs of abuse or alcohol; history of drug or other significant allergy; ECG changes including QT interval prolongation and congenital long QT syndrome. […]

## Cc1nccn1CC1CCc2c(c3ccccc3n2C)C1=O (racemic) [ondansetron, (±) 1,2,3,9-tetrahydro-9-methyl-3-[(2-methyl-1H-imidazol-1-yl)methyl]-4H-carbazol-4-one]
Neostigmine dose escalated together with oral ondansetron hydrochloride dihydrate 10 mg (8 mg base)
  neostigmine dose reached before second intolerable dose (FID-2) on co-administration of ondansetron: enabled subjects to reach neostigmine doses as high as or higher than the recommended efficacious dose for the treatment of MG
Single oral ondansetron hydrochloride dihydrate 10 mg (equivalent to 8 mg ondansetron base) with oral neostigmine bromide at the first intolerable dose and above
  gastro-intestinal AEs of neostigmine on co-administration of ondansetron: attenuated gastro-intestinal AEs reported with neostigmine alone; also recorded: prevented the occurrence of gastro-intestinal AEs
